According to the supplement of paper PMC10307832:

Columns and labels:
Test in all cases: relative viability (nuclei count vs DMSO), 5 days (fraction); higher = more cells survive
BI-D1870 = compound: CC(C)CCN1c2nc(Nc3cc(F)c(O)c(F)c3)ncc2N(C)C(=O)C1C [BI-D1870]
Summary of the method: (§1)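 Acceptance criteria were a control CV below 25% and at least one doubling per plate. Lung cancer cell lines in 1536-well plates got five library-drug doses (not always all listed) √10 apart by pinning and were left 5 days with no medium change. Viability divides treated-well nuclei by vehicle-well nuclei and is the median across plates. Nuclei were counted by MetaXpress from 4× Hoechst images.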

Zebularine = compound: O=c1ncccn1[C@@H]1O[C@H](CO)[C@@H](O)[C@H]1O [Zebularine]
Summary of the method: as §1

BI-D1870 + Luminespib = compound: CC(C)CCN1c2nc(Nc3cc(F)c(O)c(F)c3)ncc2N(C)C(=O)C1C [BI-D1870] + CCNC(=O)c1noc(-c2cc(C(C)C)c(O)cc2O)c1-c1ccc(CN2CCOCC2)cc1 [Luminespib] (partner 0.01 µM)
Summary of the method: (§2)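 Cells from lung cancer lines were seeded into 1536-well plates and, one day later, dosed by pin tool. Treatments were either a single drug or a fixed dose of an anchor drug with five library-drug doses (not always all listed) in √10 steps. After 5 days, nuclei were stained in a one-step fixation (final 0.05% Triton X-100, 1% formaldehyde, 1 ug/ml Hoechst) and counted on 4× images, and relative viability is the treated-to-vehicle nuclei ratio, as the median of duplicate plates.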

BI-D1870 + Foretinib = compound: CC(C)CCN1c2nc(Nc3cc(F)c(O)c(F)c3)ncc2N(C)C(=O)C1C [BI-D1870] + COc1cc2c(Oc3ccc(NC(=O)C4(C(=O)Nc5ccc(F)cc5)CC4)cc3F)ccnc2cc1OCCCN1CCOCC1 [Foretinib] (partner 0.25 µM)
Summary of the method: as §2

BI-D1870 + OSI-027 = compound: CC(C)CCN1c2nc(Nc3cc(F)c(O)c(F)c3)ncc2N(C)C(=O)C1C [BI-D1870] + COc1cccc2cc(-c3nc([C@H]4CC[C@H](C(=O)O)CC4)n4ncnc(N)c34)[nH]c12 [OSI-027] (partner 0.5 µM)
Summary of the method: as §2

BI-D1870 + Tozasertib = compound: CC(C)CCN1c2nc(Nc3cc(F)c(O)c(F)c3)ncc2N(C)C(=O)C1C [BI-D1870] + Cc1cc(Nc2cc(N3CCN(C)CC3)nc(Sc3ccc(NC(=O)C4CC4)cc3)n2)n[nH]1 [Tozasertib] (partner 0.1 µM)
Summary of the method: as §2

BI-D1870 + Dasatinib = compound: CC(C)CCN1c2nc(Nc3cc(F)c(O)c(F)c3)ncc2N(C)C(=O)C1C [BI-D1870] + Cc1nc(Nc2ncc(C(=O)Nc3c(C)cccc3Cl)s2)cc(N2CCN(CCO)CC2)n1 [Dasatinib] (partner 0.075 µM)
Summary of the method: as §2

BI-D1870 + Phenformin = compound: CC(C)CCN1c2nc(Nc3cc(F)c(O)c(F)c3)ncc2N(C)C(=O)C1C [BI-D1870] + N=C(N)NC(=N)NCCc1ccccc1 [Phenformin] (partner 250 µM)
Summary of the method: as §2

Zebularine + Luminespib = compound: O=c1ncccn1[C@@H]1O[C@H](CO)[C@@H](O)[C@H]1O [Zebularine] + CCNC(=O)c1noc(-c2cc(C(C)C)c(O)cc2O)c1-c1ccc(CN2CCOCC2)cc1 [Luminespib] (partner 0.01 µM)
Summary of the method: as §2

Zebularine + Foretinib = compound: O=c1ncccn1[C@@H]1O[C@H](CO)[C@@H](O)[C@H]1O [Zebularine] + COc1cc2c(Oc3ccc(NC(=O)C4(C(=O)Nc5ccc(F)cc5)CC4)cc3F)ccnc2cc1OCCCN1CCOCC1 [Foretinib] (partner 0.25 µM)
Summary of the method: as §2

Zebularine + OSI-027 = compound: O=c1ncccn1[C@@H]1O[C@H](CO)[C@@H](O)[C@H]1O [Zebularine] + COc1cccc2cc(-c3nc([C@H]4CC[C@H](C(=O)O)CC4)n4ncnc(N)c34)[nH]c12 [OSI-027] (partner 0.5 µM)
Summary of the method: as §2

Zebularine + Tozasertib = compound: O=c1ncccn1[C@@H]1O[C@H](CO)[C@@H](O)[C@H]1O [Zebularine] + Cc1cc(Nc2cc(N3CCN(C)CC3)nc(Sc3ccc(NC(=O)C4CC4)cc3)n2)n[nH]1 [Tozasertib] (partner 0.1 µM)
Summary of the method: as §2

Zebularine + Dasatinib = compound: O=c1ncccn1[C@@H]1O[C@H](CO)[C@@H](O)[C@H]1O [Zebularine] + Cc1nc(Nc2ncc(C(=O)Nc3c(C)cccc3Cl)s2)cc(N2CCN(CCO)CC2)n1 [Dasatinib] (partner 0.075 µM)
Summary of the method: as §2

Zebularine + Phenformin = compound: O=c1ncccn1[C@@H]1O[C@H](CO)[C@@H](O)[C@H]1O [Zebularine] + N=C(N)NC(=N)NCCc1ccccc1 [Phenformin] (partner 250 µM)
Summary of the method: as §2

NCI-H1623
relative viability (BI-D1870; 0.04 µM): 0.945 | relative viability (BI-D1870; 0.1265 µM): 0.895 | relative viability (BI-D1870; 0.4 µM): 1.19 | relative viability (BI-D1870; 1.265 µM): 1.16 | relative viability (BI-D1870; 4 µM): 0.911 | relative viability (Zebularine; 1 µM): 0.923 | relative viability (Zebularine; 3.162 µM): 0.895 | relative viability (Zebularine; 10 µM): 0.86 | relative viability (Zebularine; 31.62 µM): 0.894 | relative viability (Zebularine; 100 µM): 0.531 | relative viability (BI-D1870 + Luminespib; first compound 0.04 µM): 0.597 | relative viability (BI-D1870 + Luminespib; first compound 0.1265 µM): 0.521 | relative viability (BI-D1870 + Luminespib; first compound 0.4 µM): 0.625 | relative viability (BI-D1870 + Luminespib; first compound 1.265 µM): 0.462 | relative viability (BI-D1870 + Luminespib; first compound 4 µM): 0.499 | relative viability (BI-D1870 + Foretinib; first compound 0.04 µM): 0.913 | relative viability (BI-D1870 + Foretinib; first compound 0.1265 µM): 0.843 | relative viability (BI-D1870 + Foretinib; first compound 0.4 µM): 0.801 | relative viability (BI-D1870 + Foretinib; first compound 1.265 µM): 0.903 | relative viability (BI-D1870 + Foretinib; first compound 4 µM): 0.794 | relative viability (BI-D1870 + OSI-027; first compound 0.04 µM): 0.389 | relative viability (BI-D1870 + OSI-027; first compound 0.1265 µM): 0.439 | relative viability (BI-D1870 + OSI-027; first compound 0.4 µM): 0.457 | relative viability (BI-D1870 + OSI-027; first compound 1.265 µM): 0.396 | relative viability (BI-D1870 + OSI-027; first compound 4 µM): 0.376 | relative viability (BI-D1870 + Tozasertib; first compound 0.04 µM): 0.404 | relative viability (BI-D1870 + Tozasertib; first compound 0.1265 µM): 0.412 | relative viability (BI-D1870 + Tozasertib; first compound 0.4 µM): 0.478 | relative viability (BI-D1870 + Tozasertib; first compound 1.265 µM): 0.452 | relative viability (BI-D1870 + Tozasertib; first compound 4 µM): 0.376 | relative viability (BI-D1870 + Dasatinib; first compound 0.04 µM): 0.558 | relative viability (BI-D1870 + Dasatinib; first compound 0.1265 µM): 0.581 | relative viability (BI-D1870 + Dasatinib; first compound 0.4 µM): 0.527 | relative viability (BI-D1870 + Dasatinib; first compound 1.265 µM): 0.473 | relative viability (BI-D1870 + Dasatinib; first compound 4 µM): 0.452 | relative viability (BI-D1870 + Phenformin; first compound 0.04 µM): 0.574 | relative viability (BI-D1870 + Phenformin; first compound 0.1265 µM): 0.494 | relative viability (BI-D1870 + Phenformin; first compound 0.4 µM): 0.562 | relative viability (BI-D1870 + Phenformin; first compound 1.265 µM): 0.572 | relative viability (BI-D1870 + Phenformin; first compound 4 µM): 0.542 | relative viability (Zebularine + Luminespib; first compound 1 µM): 0.629 | relative viability (Zebularine + Luminespib; first compound 3.162 µM): 0.503 | relative viability (Zebularine + Luminespib; first compound 10 µM): 0.592 | relative viability (Zebularine + Luminespib; first compound 31.62 µM): 0.468 | relative viability (Zebularine + Luminespib; first compound 100 µM): 0.293 | relative viability (Zebularine + Foretinib; first compound 1 µM): 1 | relative viability (Zebularine + Foretinib; first compound 3.162 µM): 0.733 | relative viability (Zebularine + Foretinib; first compound 10 µM): 0.723 | relative viability (Zebularine + Foretinib; first compound 31.62 µM): 0.791 | relative viability (Zebularine + Foretinib; first compound 100 µM): 0.484 | relative viability (Zebularine + OSI-027; first compound 1 µM): 0.428 | relative viability (Zebularine + OSI-027; first compound 3.162 µM): 0.397 | relative viability (Zebularine + OSI-027; first compound 10 µM): 0.407 | relative viability (Zebularine + OSI-027; first compound 31.62 µM): 0.561 | relative viability (Zebularine + OSI-027; first compound 100 µM): 0.411 | relative viability (Zebularine + Tozasertib; first compound 1 µM): 0.513 | relative viability (Zebularine + Tozasertib; first compound 3.162 µM): 0.437 | relative viability (Zebularine + Tozasertib; first compound 10 µM): 0.39 | relative viability (Zebularine + Tozasertib; first compound 31.62 µM): 0.535 | relative viability (Zebularine + Tozasertib; first compound 100 µM): 0.389 | relative viability (Zebularine + Dasatinib; first compound 1 µM): 0.632 | relative viability (Zebularine + Dasatinib; first compound 3.162 µM): 0.47 | relative viability (Zebularine + Dasatinib; first compound 10 µM): 0.459 | relative viability (Zebularine + Dasatinib; first compound 31.62 µM): 0.53 | relative viability (Zebularine + Dasatinib; first compound 100 µM): 0.386 | relative viability (Zebularine + Phenformin; first compound 1 µM): 0.624 | relative viability (Zebularine + Phenformin; first compound 3.162 µM): 0.531 | relative viability (Zebularine + Phenformin; first compound 10 µM): 0.479 | relative viability (Zebularine + Phenformin; first compound 31.62 µM): 0.535 | relative viability (Zebularine + Phenformin; first compound 100 µM): 0.437
